According to paper PMC5974403, “The novel histone de acetylase 6 inhibitor, MPT0G211, ameliorates tau phosphorylation and cognitive deficits in an Alzheimer’s disease model” (Cell Death & Disease, 2018):
Like-named read-outs stand apart in the source and are kept apart here.

What was measured:
[1] = BBB crossing assay: brain and plasma concentrations by LC-MS/MS after oral administration; type: in vivo, rat; settings: rats
Method: Successful crossing of the BBB by therapeutic drugs is essential in the treatment of CNS disorders. To explore whether MPT0G211 can penetrate into the brain, single oral administration of MPT0G211 was performed, and plasma and brain samples were collected and analyzed by liquid chromatography tandem mass spectrometry (LC-MS/MS) to obtain brain/plasma ratios.
This assay was performed by Eurofins Scientific. Briefly, SD rats weighing 200–300 g were provided by BioLasco Taiwan (under the license of Charles River Laboratories). Rats were sedated under general inhalant anesthesia (3% isoflurane) for blood collection using cardiac puncture 60 and 180 min after oral administration of the test compound. Aliquots of blood were gently mixed with lithium heparin, kept on ice, and centrifuged at 2500 × g for 15 min at 4 °C. The plasma was then harvested and stored at −70 °C. After blood sampling, rats were decapitated, and the entire brain was quickly removed and rinsed with cold saline (0.9% NaCl, w/v). The surface vasculature was ruptured, blotted with dry gauze, weighed, and stored on ice within 1 h of collection. Each brain was homogenized in 3 mL cold PBS, pH 7.4, for 10 s on ice, and centrifuged at 5400 × g for 15 min at 4 °C. Supernatants were precipitated using acetonitrile precipitation and subjected to high-performance LC-MS/MS.

3×Tg-AD mice = experiment: Immunohistochemistry and western blot of brain (hippocampal CA1) of 3×Tg-AD mice; type: in vivo, mouse; settings: 3×Tg-AD mice, 50, 100 mg/kg oral, 3 months
Text: Red arrowheads indicate phosphorylated-tau proteins. Scale bar = 25 μm. Data represent the mean ± SEM. *p < 0.05, **p < 0.01, and ***p < 0.001 compared with the basal or control group; ^#p < 0.05, ^##p < 0.01, and ^###p < 0.001 compared with the vehicle-treated group

Elevated plus maze = experiment: Elevated plus maze; set-up: species or system rat; settings: AD in vivo models; stated in introduction only
Method: The plus maze consisted of two open and two closed arms, connected by a central platform. Animals were individually placed at the end of either of the open arms facing away from the central platform. The time for each rat to move from the open arm to either of the closed arms was recorded. […] These experiments were performed in accordance with relevant ethics guidelines and regulations, which were reviewed and approved by the Animal Use and Management Committee of the College of Medicine, National Taiwan University (IACUC number: 20130361).

Neuro-2a cells = experiment: MTT cell viability, Neuro-2a; type: cell-based, mouse; settings: 24 h, 0.01–1 μM
Method: (§1) Cell viabilities were determined by MTT assay. The results represent the mean ± SEM of three independent experiments; *p < 0.05, **p < 0.01 and ***p < 0.001 compared with controls TEXT PRINTED IN THE PICTURE: (A) no label printed: M.W. 293.32

HDAC6 = test system: HDAC6; set-up: method as in PMID 29304284; settings: cited from earlier work
SH-SY5Y cells [2] = experiment: Western blot of acetyl-α-tubulin and acetyl-histone, SH-SY5Y cells; type: cell-based, human; settings: 0.1 to 1 μM, 24 h
Method: as §1
(§2) Cells (1 × 10^6) were incubated for 10 min at 4 °C in lysis buffer (20 mM HEPES, pH 7.4, 2 mM EGTA, 50 mM β-glycerophosphate, 0.1% Triton X-100, 10% glycerol, 1 mM dithiothreitol, 1 μg/mL leupeptin, 5 μg/mL aprotinin, 1 mM phenylmethylsulfonyl fluoride, and 1 mM sodium orthovanadate), scraped from the plate, incubated on ice for 10 min, and centrifuged at 17,000 × g for 30 min at 4 °C. Protein samples (30 μg) were electrophoresed through sodium dodecyl sulfate-polyacrylamide gels (SDS-PAGE) and transferred onto a nitrocellulose membrane, which was then blocked by incubation for 30 min at room temperature with 5% fat-free milk in PBS. Immunoblotting was performed by overnight incubation at 4 °C with primary antibodies in PBS, followed by incubation for 1 h at room temperature with HRP-conjugated secondary antibodies. Bound antibodies were measured using ECL reagent (T-Pro Biotechnology, New Taipei City, Taiwan), and the membrane was placed on a photographic film. Cell lysates (30 μg) were incubated with antibodies (1 μg each) and protein A/G agarose beads overnight at 4 °C. The precipitated beads were washed three times with 1 mL of ice-cold cell lysis buffer, and bound immune complexes were separated using 8% SDS-PAGE, followed by immunoblotting using the indicated primary antibody.

SH-SY5Y cells [3] = experiment: Aβ1–40-induced tau phosphorylation, western blot; type: cell-based, human; settings: Aβ1–40 10 μM 24 h, then 0.1 μM for 24 h
Method: Cell lysates were prepared for western blot analysis of the indicated proteins. Results are presented as the mean ± SEM. *p < 0.05, **p < 0.01, and ***p < 0.001 compared with the control group; ^#p < 0.05, ^##p < 0.01, ^###p < 0.001 compared with the indicated groups
as §2, with “The precipitated beads were washed three times with 1 mL of ice-cold cell lysis buffer, and bound immune complexes were separated using 8% SDS-PAGE, followed by immunoblotting using the indicated primary antibody.” left out

Which Kp at 3 h ([1]; SD, rat, brain/plasma, PO 50 mg/kg, 3 h, read-out: Brain/plasma ratio) does the source give for `O=C(NO)c1ccc(CNc2cccc3cccnc23)cc1` [MPT0G211, N-hydroxy-4-((quinolin-8-ylamino)methyl)benzamide] here?
The Kp at 3 h was 0.9.

What about the concentration at 1 h ([1]; SD, rat, brain, PO 50 mg/kg, 1 h, read-out: Brain concentration) of the same compound?
The concentration at 1 h was 56.9 ± 3.4 ng/g.

What about the concentration at 3 h ([1]; SD, rat, brain, PO 50 mg/kg, 3 h, read-out: Brain concentration) of the same compound?
The concentration at 3 h was 11 ± 0.1 ng/g.

And the Kp at 1 h ([1]; SD, rat, in vivo, PO 50 mg/kg, 1 h, read-out: Brain/plasma ratio)?
Its Kp at 1 h is 1.01.

What about the concentration at 1 h ([1]; SD, rat, plasma, PO 50 mg/kg, 1 h, read-out: Plasma concentration) of the same compound?
The concentration at 1 h was 56.4 ± 4 ng/g.

What about the concentration at 3 h ([1]; SD, rat, plasma, PO 50 mg/kg, 3 h, read-out: Plasma concentration) of the same compound?
The concentration at 3 h was 12.2 ± 1.4 ng/g.

And the BBB penetration ([1]; single oral administration)?
The BBB penetration was “can penetrate the BBB”.

And the “time for which concentrations were detected in the brain” value ([1]; single oral administration)?
Its value is “at least 3 h”.

And the “acetyl-α-tubulin accumulation in brain” value (3×Tg-AD mice)?
Its value is “increased”.

What about the “p-Tau (S396) expression in brain” value (3×Tg-AD mice; hippocampal CA1) of the same compound?
The value was “significantly downregulated”.

And the “p-Tau (S404) expression in brain” value (3×Tg-AD mice; hippocampal CA1)?
The value was “significantly downregulated”.

What about the “time spent in finding the closed arm (elevated plus maze) and platform (Morris water maze)” value (Elevated plus maze) of the same compound?
Its value is “reduced the time spent by animals in finding the platform and closed arm”.

What about the “cytotoxicity (MTT cell viability)” value (Neuro-2a cells) of the same compound?
The value was “did not result in any significant cytotoxicity”.

What about the “selectivity for HDAC6 compared with the other HDAC isoforms” value (HDAC6) of the same compound?
The value was 1000 fold.

What about the IC50 (HDAC6; read-out: HDAC6 inhibition IC50) of the same compound?
Its IC50 is 0.291 nM.

And the acetylation of histones (SH-SY5Y cells [2])?
The acetylation of histones was “without affecting the acetylation of histones”.

What about the “acetylation of α-tubulin” value (SH-SY5Y cells [2]) of the same compound?
The value was “concentration-dependently increased”.

What about the “GSK3β activity and Aβ1–40-induced tau phosphorylation” value (SH-SY5Y cells [3]) of the same compound?
The value was “diminished”.
